Data as given in ChEMBL document CHEMBL1201862, “PubChem BioAssay data set” (2004).
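Following 48 hours of exposure in 96-well plates, responses at five concentrations were used to interpolate endpoints linearly. GI50 marks 50% less growth.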 Calls of active or inactive are those of the source. No stated cut-off is given here; in the data, active = GI50 up to about 1.1 µM and inactive = higher.

Legend:
Test in all cases: NCI-60 cell line screen, 48 h
[1] = test system: ACHN
[2] = test system: CAKI-1
[3] = test system: EKVX
[4] = test system: HL-60
[5] = test system: HT-29
[6] = test system: K562
[7] = test system: KM12
[8] = test system: LOX IMVI
[9] = test system: MDA-MB-231
[10] = test system: MOLT-4
[11] = test system: SF-268
[12] = test system: SK-MEL-5
[13] = test system: SNB-19
[14] = test system: SNB-75
[15] = test system: SR
[16] = test system: U-251
[17] = test system: UACC-257
[18] = test system: UACC-62
[19] = test system: UO-31
[20] = test system: SF-539

Row | Structure (SMILES) | GI50 [1] | GI50 [2] | GI50 [3] | GI50 [4] | GI50 [5] | GI50 [6] | GI50 [7] | GI50 [8] | GI50 [9] | GI50 [10] | GI50 [11] | GI50 [12] | GI50 [13] | GI50 [14] | GI50 [15] | GI50 [16] | GI50 [17] | GI50 [18] | GI50 [19] | GI50 [20]
1 | CCc1c2c([nH]c(=S)c1C#N)CCC2 | > 100 µM (inactive) | > 100 µM (inactive) | 16.9 µM (inactive) | > 100 µM (inactive) | > 100 µM (inactive) | > 100 µM (inactive) | > 100 µM (inactive) | > 100 µM (inactive) | > 100 µM (inactive) | > 100 µM (inactive) | > 100 µM (inactive) | > 100 µM (inactive) | > 100 µM (inactive) | > 100 µM (inactive) | 74.5 µM (inactive) | > 100 µM (inactive) | > 100 µM (inactive) | > 100 µM (inactive) | > 100 µM (inactive) | –
2 | C=CCN(c1cc(OC)c(NC(C)=O)cc1[N+](=O)[O-])S(C)(=O)=O | > 100 µM (inactive) | > 100 µM (inactive) | > 100 µM (inactive) | > 100 µM (inactive) | – | > 100 µM (inactive) | > 100 µM (inactive) | > 100 µM (inactive) | > 100 µM (inactive) | > 100 µM (inactive) | > 100 µM (inactive) | > 100 µM (inactive) | > 100 µM (inactive) | > 100 µM (inactive) | > 100 µM (inactive) | > 100 µM (inactive) | > 100 µM (inactive) | > 100 µM (inactive) | > 100 µM (inactive) | –
3 | CN(C)/C=N/S(=O)(=O)c1nn2c(C=O)c(-c3ccccc3)nc2s1 | 5.65 µM (inactive) | 0.658 µM (active) | 30.5 µM (inactive) | – | 1.94 µM (inactive) | 3.9 µM (inactive) | 22.6 µM (inactive) | 14.7 µM (inactive) | 6.81 µM (inactive) | 3.21 µM (inactive) | 29.5 µM (inactive) | 11.5 µM (inactive) | 36 µM (inactive) | 59.7 µM (inactive) | 5.74 µM (inactive) | 15.9 µM (inactive) | 24.2 µM (inactive) | 18.2 µM (inactive) | 5.36 µM (inactive) | 17.7 µM (inactive)
4 | CC(=O)C(C(=O)c1ccc(C)cc1)[C@H]1OC(C)(C)O[C@H]1[C@H]1COC(C)(C)O1 (some centres undefined) | 6.15 µM (inactive) | 5.38 µM (inactive) | 5.32 µM (inactive) | – | 2.2 µM (inactive) | 1.78 µM (inactive) | 8.75 µM (inactive) | 2.06 µM (inactive) | 5.82 µM (inactive) | 1.66 µM (inactive) | 2.81 µM (inactive) | 5.08 µM (inactive) | 9.95 µM (inactive) | 3.78 µM (inactive) | 1.42 µM (inactive) | 1.91 µM (inactive) | 5.31 µM (inactive) | 6.1 µM (inactive) | 6.98 µM (inactive) | 1.87 µM (inactive)
5 | O=C1c2cccc(O)c2C(=O)c2c(OC3OC(CO)C(O)C(O)C3O)cccc21 (centres undefined) | 61.7 µM (inactive) | 55.5 µM (inactive) | 32.7 µM (inactive) | – | 33.3 µM (inactive) | 48 µM (inactive) | 30.3 µM (inactive) | 37.5 µM (inactive) | 21.3 µM (inactive) | – | 22.9 µM (inactive) | 16.5 µM (inactive) | 33.7 µM (inactive) | 24 µM (inactive) | 32.4 µM (inactive) | 25.2 µM (inactive) | 19.5 µM (inactive) | 49.8 µM (inactive) | 35.2 µM (inactive) | 25.5 µM (inactive)
6 | CC(=O)Oc1ccc(/C=C/C(=O)O[C@@H](C(=O)O)[C@@H](OC(=O)/C=C/c2ccc(OC(C)=O)c(OC(C)=O)c2)C(=O)O)cc1OC(C)=O | > 100 µM (inactive) | > 100 µM (inactive) | > 100 µM (inactive) | – | – | > 100 µM (inactive) | > 100 µM (inactive) | > 100 µM (inactive) | > 100 µM (inactive) | – | > 100 µM (inactive) | > 100 µM (inactive) | > 100 µM (inactive) | 82.8 µM (inactive) | > 100 µM (inactive) | > 100 µM (inactive) | > 100 µM (inactive) | > 100 µM (inactive) | > 100 µM (inactive) | –
